Laboratory results published in patent publication US4321384A, “Antihypertensive agents” (American Home Products Corporation, priority 1981, dated 1982).

Key:
rabbit aortic strips = assay: Ca+2 antagonism: relaxation of potassium-contracted rabbit aortic strips; type: cell-based; settings: Oryctolagus cuniculus; 10^-5 M bath concentration; strips contracted with 100 millimoles potassium ion; read-out: percent relaxation (P.R.)
Procedure: After a stable active tension has developed in the strip, as measured by Statham UC-2 force transducers and recorded on an eight channel Beckman Dynograph Polygraphic Recorder, an amount of the antagonist was added to the organ bath to make a 10^-5 molar concentration of antagonist. The […] effect, expressed as percent relaxation, was taken from the mean of at least two experiments. […] A Ca^+2 antagonist producing a 20 percent relaxation of aortic tissue in this test procedure at a 10^-5 molar bath concentration of the antagonist, generally produces a significant reduction in blood pressure when a sufficient amount is given to the spontaneously hypertensive rat. The following examples illustrate the preparation of a representative number of compounds of this invention. After each example, the Ca^+2 antagonist activity of the compound is presented in terms of percent relaxation (P.R.) at the stated concentration. Similarly, the antihypertensive activity is reported in terms of millimeters mercury (mmHg) blood pressure (B.P.) reduction at the stated time post 50 mg/kg oral dosing.

[1] = tested on: spontaneously hypertensive rats; assay: Systolic blood pressure lowering in spontaneously hypertensive rats; type: in vivo, rat; settings: 1.5 hours post dose 25 mg/kg

COC(=O)C1=C(C)NC2=C(C(=O)CNC2)C1c1cccc([N+](=O)[O-])c1 (centres unmarked) [Example 13, 1,4,5,6,7,8-Hexahydro-2-methyl-4-(3-nitrophenyl)-5-oxo-1,7-naphthyridine-3-carboxylic acid methyl ester]
inhibition at 10 µM (rabbit aortic strips): 86.5%
blood pressure (B.P.) reduction [1]: -58 mmHg
